{
  "source": "patent US12280046B2",
  "about": "“Melanocortin subtype-2 receptor (MC2R) antagonist for the treatment of disease” (Crinetics Pharmaceuticals, Inc., priority 2021, dated 2025)",
  "key": {"[1]": {"target": "T1, MC3R (Homo sapiens, UniProt P41968)", "T1 construct": "purchased", "T1 sequence (P41968 whole entry)": "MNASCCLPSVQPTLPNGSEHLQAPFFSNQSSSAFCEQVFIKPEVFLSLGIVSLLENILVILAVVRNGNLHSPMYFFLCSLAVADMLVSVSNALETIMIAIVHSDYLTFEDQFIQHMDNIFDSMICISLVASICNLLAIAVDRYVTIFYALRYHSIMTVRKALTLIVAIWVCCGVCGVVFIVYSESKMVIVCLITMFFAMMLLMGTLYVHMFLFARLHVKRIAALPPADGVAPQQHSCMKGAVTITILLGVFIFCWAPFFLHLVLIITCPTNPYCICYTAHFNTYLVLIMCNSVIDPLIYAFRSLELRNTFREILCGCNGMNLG", "test": "Commercially available MC3R membrane binding assay", "details": "greater than highest concentration tested", "procedure": "(§1) The selectivity over other human MCR subtypes was evaluated using commercially available MC1R, MC3R, MC4R, and MCSR membrane binding assays. The half maximal inhibitory concentration in the binding assays (IC50) were determined to be greater than the highest concentration tested, or >10,000 nM, >1000 nM, >10,000 nM and >1000 nM for MC1R, MC3R, MC4R and MCSR, respectively. Compound 1 is >2900-fold selective for MC2R versus the other human MCRs."}, "[2]": {"test": "Phase 1 MAD study, pharmacokinetics, 40 mg daily over 10 days", "type": "in vivo, human", "description": "This Phase 1, first-in-human, double-blind, randomized, placebo-controlled study will evaluate the safety of Compound 1 in healthy volunteers as well as the relationship between exposure and pharmacodynamic (PD) parameters, including ACTH-stimulated and endogenous cortisol secretion measured in blood, saliva, and urine. Results will be used to inform endpoints and other parameters in future later studies in patients with Cushing's disease (CD) or other diseases of excess adrenocorticotropic hormone (ACTH), including Congenital Adrenal Hyperplasia (CAH) and Ectopic ACTH Syndrome (EAS).\nMAD/Part 2: multiple ascending dose, randomized, placebo-controlled, double-blind; 2 planned and up to 4 total cohorts (n=36). In each cohort, 6 subjects will receive Compound 1, 3 subjects will receive the placebo. The doses will not exceed the doses in the SAD.\nPharmacokinetic results for Day 1 and Day 10 from the MAD study using a 40 mg daily dose of Compound 1 over 10 days are shown in FIG. 12. Data shown are mean±SEM. […] The mean half-life was ˜30 hours."}, "[3]": {"target": "T2, MC1R (Homo sapiens, UniProt Q01726)", "T2 construct": "purchased", "T2 sequence (Q01726 whole entry)": "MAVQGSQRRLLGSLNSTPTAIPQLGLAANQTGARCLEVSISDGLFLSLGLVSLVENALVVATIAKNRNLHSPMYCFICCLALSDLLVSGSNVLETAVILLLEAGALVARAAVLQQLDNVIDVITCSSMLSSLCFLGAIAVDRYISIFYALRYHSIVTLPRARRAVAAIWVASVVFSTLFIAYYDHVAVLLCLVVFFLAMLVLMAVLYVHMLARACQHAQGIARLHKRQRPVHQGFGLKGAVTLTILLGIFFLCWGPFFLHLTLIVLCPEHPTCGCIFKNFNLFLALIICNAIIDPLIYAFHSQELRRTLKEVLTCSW", "test": "Commercially available MC1R membrane binding assay", "details": "greater than highest concentration tested", "procedure": "as §1"}, "[4]": {"target": "T3, human MC2R (Homo sapiens, UniProt Q01718)", "T3 construct": "host or cells: CellSensor CRE-bla CHO-K1", "T3 sequence (Q01718 whole entry)": "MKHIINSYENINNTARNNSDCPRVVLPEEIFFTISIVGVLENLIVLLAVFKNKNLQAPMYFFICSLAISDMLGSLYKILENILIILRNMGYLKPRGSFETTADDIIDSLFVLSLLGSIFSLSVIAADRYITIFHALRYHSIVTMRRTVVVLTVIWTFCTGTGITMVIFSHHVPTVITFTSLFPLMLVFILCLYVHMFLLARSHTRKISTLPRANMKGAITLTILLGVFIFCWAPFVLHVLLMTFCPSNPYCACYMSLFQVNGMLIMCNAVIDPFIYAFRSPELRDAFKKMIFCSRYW", "T3 sequence (Q8TCY5 whole entry partner)": "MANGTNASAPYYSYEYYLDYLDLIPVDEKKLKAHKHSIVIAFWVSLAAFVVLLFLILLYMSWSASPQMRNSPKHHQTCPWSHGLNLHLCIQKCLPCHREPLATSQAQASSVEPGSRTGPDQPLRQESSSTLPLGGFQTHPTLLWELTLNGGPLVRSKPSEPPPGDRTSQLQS", "test": "Inhibition of ACTH binding: radioactive competition binding assay, hMC2R membranes", "procedure": "Crude membrane fractions are prepared from CellSensor CRE-bla CHO-K1 cells stably expressing functional hMC2 receptor (ThermoFisher #K1483). The cells are cultured to 85-100% confluency in growth media [GlutaMax DMEM (Gibco #10569-010) supplemented with 10% dialyzed fetal bovine serum (Gemini Bio-Products #100-108), 0.1 mM non-essential amino acids (Gibco #11140-050), 100 U/mL penicillin; 100 μg/mL streptomycin; 2 mM L-glutamine (Gemini Bio-Products #400-110), 5 μg/mL blasticidin (GoldBio #B-800-100), 100 μg/mL zeocin (Invitogen #R25005) and 600 μg/mL hygromycin B (GoldBio #31282-04-9)]. Cells were collected and washed in Dulbecco's phosphate buffered saline (Corning #21-031-CV). […]\nThe inhibition of binding to the human MC2R receptor was measured in a radioactive competition binding assay using the radiolabeled [^125I]-TYR^23]-ACTH (1-39) ligand (PerkinElmer #NEX083, custom synthesis) as the probe ligand for the receptor. […] The radioactive signal was detected using a MicroBetaTriLux 1450 LSC (PerkinElmer). […]\nThe selectivity over other human MCR subtypes was evaluated using commercially available MC1R, MC3R, MC4R, and MCSR membrane binding assays. […]"}, "[5]": {"tested_on": "plasma corticosterone in mice with ACTH-secreting AtT-20 cell tumors", "test": "ACTH-secreting AtT-20 mouse pituitary cell tumor model, 14 days of daily oral dosing", "type": "in vivo", "details": "for suppression of plasma corticosterone: 2 hours after last dose, vs vehicle", "procedure": "The ability of 14 days of daily oral administration of Compound 1 to suppress corticosterone in a mouse model of ACTH excess was evaluated.\nBriefly, female Balb/c nude mice were subcutaneously implanted with AtT-20 corticotroph tumor cells in the rear flank (3 million cells/injection/animal) on Day 0. The no-tumor (NT) control group was injected with media only. When tumors became palpable on Day 21, mice were assigned to groups randomized for body weight, and 0, 15, 30 or 100 mg/kg/day of Compound 1. Compound 1 was orally administered for 14 days (Day 21 to Day 34)."}, "[6]": {"target": "T4, MCSR (Homo sapiens, UniProt P33032)", "T4 construct": "purchased", "T4 sequence (P33032 whole entry)": "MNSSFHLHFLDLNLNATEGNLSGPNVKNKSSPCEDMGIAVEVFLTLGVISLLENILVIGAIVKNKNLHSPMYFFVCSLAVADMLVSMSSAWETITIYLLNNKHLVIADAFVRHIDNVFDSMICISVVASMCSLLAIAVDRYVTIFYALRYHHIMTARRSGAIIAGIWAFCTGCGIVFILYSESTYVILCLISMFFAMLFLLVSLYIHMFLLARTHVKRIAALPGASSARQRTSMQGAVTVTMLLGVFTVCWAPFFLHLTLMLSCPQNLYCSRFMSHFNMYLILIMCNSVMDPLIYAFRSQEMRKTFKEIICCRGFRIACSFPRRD", "test": "Commercially available MCSR membrane binding assay", "details": "greater than highest concentration tested", "procedure": "as §1"}, "[7]": {"tested_on": "corticosterone and adrenal gland hypertrophy", "test": "Continuous pump-administration of ACTH(1-24) in male rats, 7 days of daily oral dosing", "type": "in vivo, rat", "procedure": "Exogenous ACTH(1-24) (100 μg/kg/day) was administered to male rats via subcutaneously implanted osmotic pumps. The ability of repeated daily oral administration of Compound 1 to suppress corticosterone over 7 days was evaluated."}, "[8]": {"target": "5-HT1B receptor (Homo sapiens, UniProt P28222)", "sequence (P28222 whole entry)": "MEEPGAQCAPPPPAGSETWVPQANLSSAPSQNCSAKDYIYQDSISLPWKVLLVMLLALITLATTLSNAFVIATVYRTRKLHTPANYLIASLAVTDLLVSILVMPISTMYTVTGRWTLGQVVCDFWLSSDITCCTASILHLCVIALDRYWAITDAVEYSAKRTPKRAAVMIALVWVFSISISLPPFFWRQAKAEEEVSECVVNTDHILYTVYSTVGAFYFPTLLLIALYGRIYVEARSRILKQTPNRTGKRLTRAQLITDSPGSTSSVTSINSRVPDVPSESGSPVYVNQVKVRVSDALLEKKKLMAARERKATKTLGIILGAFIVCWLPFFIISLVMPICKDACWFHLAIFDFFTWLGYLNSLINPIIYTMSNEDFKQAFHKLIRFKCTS", "test": "5-HT1B functional dose response, agonist and antagonist modes", "type": "biochemical", "description": "The selectivity of Compound 1 for hMC2R over 5-HT1B is >2200-fold."}, "[9]": {"details": "daily oral dosing over the course of the experiment"}},
  "data": [
    {"molecule": "CCOc1ccccc1-c1ccc(N2CCN(C(=O)C3(C(F)(F)F)CCC3)C[C@H]2CC)c(C(=O)N[C@@H]2CN3CCC2CC3)n1", "note": "[Compound 1, 6-(2-ethoxyphenyl)-3-((R)-2-ethyl-4-(1-(trifluoromethyl)cyclobutane-1-carbonyl)piperazin-1-yl)-N—((S)-quinuclidin-3-yl)picolinamide]", "values": [
      {"measurement": "IC50", "setting": "[1]", "value": "> 1000", "unit": "nM"},
      {"measurement": "accumulation with chronic dosing, higher than projected from SAD study results", "setting": "[2]; 40 mg daily over 10 days", "value": "approximately 2.4 fold"},
      {"measurement": "Day 1 PK profile and exposures", "setting": "[2]; 40 mg, Day 1", "value": "comparable to the 40 mg single dose from the SAD study"},
      {"measurement": "half-life", "setting": "[2]; human, in vivo, oral, 40 mg daily over 10 days", "value": "~30", "unit": "h"},
      {"measurement": "IC50", "setting": "[3]", "value": "> 10000", "unit": "nM"},
      {"measurement": "Ki", "setting": "[4]; hMC2R membranes, [125I]-Tyr23-ACTH(1-39) probe, read-out: equilibrium inhibitory constant (Ki) in a binding assay", "value": "< 10", "unit": "nM"},
      {"measurement": "selectivity for MC2R versus the other human MCRs", "setting": "[4]; over MC1R, MC3R, MC4R, MCSR", "value": "> 2900", "unit": "fold"},
      {"measurement": "suppression of plasma corticosterone", "setting": "[5]; 15 mg/kg/day", "value": 73, "unit": "%"},
      {"measurement": "suppression of plasma corticosterone", "setting": "[5]; 30 mg/kg/day", "value": 88, "unit": "%"},
      {"measurement": "increase in ACTH levels", "setting": "[5]; 100 mg/kg/day vs vehicle", "value": 2.4, "unit": "fold"},
      {"measurement": "suppression of plasma corticosterone", "setting": "[5]; 100 mg/kg/day", "value": 92, "unit": "%"},
      {"measurement": "body weight", "setting": "[5]; [9]", "value": "no significant effect"},
      {"measurement": "tumor volume", "setting": "[5]; [9]", "value": "no significant effect"},
      {"measurement": "IC50", "setting": "[6]", "value": "> 1000", "unit": "nM"},
      {"measurement": "adrenal gland hypertrophy (adrenal gland weight and adrenal cortical area)", "setting": "[7]; 10 and 30 mg/kg/day vs vehicle", "value": "ameliorated adrenal gland hypertrophy"},
      {"measurement": "corticosterone", "setting": "[7]; ≥10 mg/kg/day, 1 hour post-dose on Day 1 and Day 7", "value": "dose-dependently suppressed"},
      {"measurement": "selectivity for hMC2R over 5-HT1B", "setting": "[8]", "value": "> 2200", "unit": "fold"},
      {"measurement": "agonistic activity", "setting": "[8]; agonist mode, no signal up to 3000 nM", "value": "no agonistic activity"},
      {"measurement": "IC50", "setting": "[8]; antagonist mode, read-out: antagonistic activity IC50", "value": "~750", "unit": "nM"}
    ]}
  ]
}
